Experimental data published in US8871765B2, “Substituted 4-(4-fluoro-3-(piperazine-1-carbonyl)benzyl)phthalazin-1(2H)-one derivatives as poly (ADP-ribose) polymerase-1 inhibitors” (Cadila Healthcare Limited, priority 2010, dated 2014).

Assays:
MCF-7 cell line = experiment: Potentiation of cell killing activity of Methyl Methane Sulphonate (MMS) in MCF-7 cells, MTT assay; format: cell-based; settings: compound at 100 nM, cell survival without/with alkylating agent MMS
Description: Potentiation of cell killing activity of Methyl Methane Sulphonate (MMS) by selected compounds according to present invention was evaluated in MCF-7 cell line obtained from National Centre for Cell Science, Pune, by using MTT assay according to general protocol described in Methods in Molecular Biology, Volume-43, In vitro Toxicity Testing Protocol, Chapter-6, page: 137-149. Compounds were tested for PARP 1 activity based on percent cell survival of MCF-7 cells with alkylating agent MMS.

PARP-1 = target: T1, PARP-1 (Homo sapiens, UniProt P09874); experiment: PARP-1 inhibitory activity, HT universal colorimetric PARP assay kit (Trevigen); format: biochemical; settings: HT universal colorimetric PARP assay kit; read-out: PARP-1 activity in vitro IC50 nM)
T1 construct: purchased Trevigen
Description: The compounds were tested for PARP-1 inhibitory activity by using HT universal colorimetric PARP assay kit obtained from Trevigen, following manufacturer's protocol.

T1 sequence (P09874 whole entry): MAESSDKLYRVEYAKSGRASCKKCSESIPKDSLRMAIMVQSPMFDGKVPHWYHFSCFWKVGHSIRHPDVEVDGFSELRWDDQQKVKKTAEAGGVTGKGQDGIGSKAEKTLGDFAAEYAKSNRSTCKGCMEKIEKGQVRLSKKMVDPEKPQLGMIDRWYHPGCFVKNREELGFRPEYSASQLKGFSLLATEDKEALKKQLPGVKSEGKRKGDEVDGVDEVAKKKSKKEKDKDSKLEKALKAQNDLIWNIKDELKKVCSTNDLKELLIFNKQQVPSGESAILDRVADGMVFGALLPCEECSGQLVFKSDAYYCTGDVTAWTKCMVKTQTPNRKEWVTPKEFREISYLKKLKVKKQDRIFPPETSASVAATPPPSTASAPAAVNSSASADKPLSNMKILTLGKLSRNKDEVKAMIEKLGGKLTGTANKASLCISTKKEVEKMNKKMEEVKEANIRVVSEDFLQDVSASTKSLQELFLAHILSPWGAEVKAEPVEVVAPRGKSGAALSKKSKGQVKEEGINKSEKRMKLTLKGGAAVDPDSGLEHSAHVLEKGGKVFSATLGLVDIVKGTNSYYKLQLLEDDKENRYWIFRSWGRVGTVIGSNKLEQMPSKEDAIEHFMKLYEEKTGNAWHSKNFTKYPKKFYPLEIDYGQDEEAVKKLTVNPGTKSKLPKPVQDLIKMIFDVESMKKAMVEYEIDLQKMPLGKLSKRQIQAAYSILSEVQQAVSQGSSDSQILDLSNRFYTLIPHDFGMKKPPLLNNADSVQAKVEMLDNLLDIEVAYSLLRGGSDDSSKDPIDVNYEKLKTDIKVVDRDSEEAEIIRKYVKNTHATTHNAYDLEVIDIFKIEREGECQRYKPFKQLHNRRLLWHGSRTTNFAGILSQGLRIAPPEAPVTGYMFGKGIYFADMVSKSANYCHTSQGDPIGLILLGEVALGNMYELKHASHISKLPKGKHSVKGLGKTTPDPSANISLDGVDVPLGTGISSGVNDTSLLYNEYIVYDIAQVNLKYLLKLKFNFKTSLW

## CC(C)(Sc1ccc(Br)cc1)C(=O)N1CCN(C(=O)c2cc(Cc3n[nH]c(=O)c4ccccc34)ccc2F)CC1 [Example 47, 4-(3-(4-(2-((4-bromophenyl)thio)-2-methylpropanoyl)piperazine-1-carbonyl)-4-fluorobenzyl)phthalazin-1(2H)-one]
MCF-7 cell line
  Survival affected by drug [(−MMS/+MMS)] at 100 nM: 2.12
PARP-1
  IC50: 9.16 nM

## CC(C)(Oc1ccc(Br)cc1Cl)C(=O)N1CCN(C(=O)c2cc(Cc3n[nH]c(=O)c4ccccc34)ccc2F)CC1 [Example 20, 4-(3-(4-(2-(4-bromo-2-chlorophenoxy)-2-methylpropanoyl)piperazine-1-carbonyl)-4-fluorobenzyl)phthalazin-1(2H)-one]
MCF-7 cell line
  Survival affected by drug [(−MMS/+MMS)] at 100 nM: 2.15
PARP-1
  IC50: 14.3 nM

## CC(C)(Oc1ccccn1)C(=O)N1CCN(C(=O)c2cc(Cc3n[nH]c(=O)c4ccccc34)ccc2F)CC1 [Example 17, 4-(4-fluoro-3-(4-(2-methyl-2-(pyridin-2-yloxy)propanoyl)piperazine-1-carbonyl)benzyl)phthalazin-1(2H)-one]
MCF-7 cell line
  Survival affected by drug [(−MMS/+MMS)] at 100 nM: 1.93
PARP-1
  IC50: 13.9 nM

## CC(C)(Sc1ccc(F)cc1F)C(=O)N1CCN(C(=O)c2cc(Cc3n[nH]c(=O)c4ccccc34)ccc2F)CC1 [Example 27, 4-(3-(4-(2-((2,4-difluorophenyl)thio)-2-methylpropanoyl)piperazine-1-carbonyl)-4-fluorobenzyl)phthalazin-1(2H)-one]
MCF-7 cell line
  Survival affected by drug [(−MMS/+MMS)] at 100 nM: 2.49
PARP-1
  IC50: 5.17 nM

## CC(C)(SC1CCCC1)C(=O)N1CCN(C(=O)c2cc(Cc3n[nH]c(=O)c4ccccc34)ccc2F)CC1 [Example 36, 4-(3-(4-(2-(cyclopentylthio)-2-methylpropanoyl)piperazine-1-carbonyl)-4-fluorobenzyl)phthalazin-1(2H)-one]
MCF-7 cell line
  Survival affected by drug [(−MMS/+MMS)] at 100 nM: 2.59
PARP-1
  IC50: 5.17 nM

## CC(C)(Oc1cccc(C(F)(F)F)c1)C(=O)N1CCN(C(=O)c2cc(Cc3n[nH]c(=O)c4ccccc34)ccc2F)CC1 [Example 21, 4-(4-fluoro-3-(4-(2-methyl-2-(3-(trifluoromethyl)phenoxy)propanoyl)piperazine-1-carbonyl)benzyl)phthalazin-1(2H)-one]
MCF-7 cell line
  Survival affected by drug [(−MMS/+MMS)] at 100 nM: 1.62
PARP-1
  IC50: 12 nM

## CC(C)(Sc1ccccc1Br)C(=O)N1CCN(C(=O)c2cc(Cc3n[nH]c(=O)c4ccccc34)ccc2F)CC1 [Example 29, 4-(3-(4-(2-((2-bromophenyl)thio)-2-methylpropanoyl)piperazine-1-carbonyl)-4-fluorobenzyl)phthalazin-1(2H)-one]
MCF-7 cell line
  Survival affected by drug [(−MMS/+MMS)] at 100 nM: 2.22
PARP-1
  IC50: 8.6 nM

## CC(C)(C(=O)N1CCN(C(=O)c2cc(Cc3n[nH]c(=O)c4ccccc34)ccc2F)CC1)[S+]([O-])c1ccc(F)cc1 (stereo not drawn) [Example 25, 4-(4-fluoro-3-(4-(2-((4-fluorophenyl)sulfinyl)-2-methylpropanoyl)piperazine-1-carbonyl)benzyl)phthalazin-1(2H)-one]
MCF-7 cell line
  Survival affected by drug [(−MMS/+MMS)] at 100 nM: 2.15
PARP-1
  IC50: 5.94 nM

## CC(C)(C(=O)N1CCN(C(=O)c2cc(Cc3n[nH]c(=O)c4ccccc34)ccc2F)CC1)[S+]([O-])c1ccc(Cl)cc1Cl (stereo not drawn) [Example 39, 4-(3-(4-(2-(2,4-dichlorophenylsulfinyl)-2-methylpropanoyl)piperazine-1-carbonyl)-4-fluorobenzyl)phthalazin-1(2H)-one]
MCF-7 cell line
  Survival affected by drug [(−MMS/+MMS)] at 100 nM: 2.29
PARP-1
  IC50: 9.47 nM

## CC(C)(Oc1ccc(F)cc1F)C(=O)N1CCN(C(=O)c2cc(Cc3n[nH]c(=O)c4ccccc34)ccc2F)CC1 [Example 26, 4-(3-(4-(2-(2,4-difluorophenoxy)-2-methylpropanoyl)piperazine-1-carbonyl)-4-fluorobenzyl)phthalazin-1(2H)-one]
MCF-7 cell line
  Survival affected by drug [(−MMS/+MMS)] at 100 nM: 2.59
PARP-1
  IC50: 6.43 nM

## CC(C)(Oc1ccccc1[N+](=O)[O-])C(=O)N1CCN(C(=O)c2cc(Cc3n[nH]c(=O)c4ccccc34)ccc2F)CC1 [Example 19, 4-(4-fluoro-3-(4-(2-methyl-2-(2-nitrophenoxy)propanoyl)piperazine-1-carbonyl)benzyl)phthalazin-1(2H)-one]
MCF-7 cell line
  Survival affected by drug [(−MMS/+MMS)] at 100 nM: 2.19
PARP-1
  IC50: 12.4 nM

## COc1ccc(OC(C)(C)C(=O)N2CCN(C(=O)c3cc(Cc4n[nH]c(=O)c5ccccc45)ccc3F)CC2)cc1 [Example 3, 4-(4-fluoro-3-(4-(2-methyl-2-(4-methoxyphenoxy)propanoyl)piperazine-1-carbonyl)benzyl)phthalazin-1(2H)-one]
MCF-7 cell line
  Survival affected by drug [(−MMS/+MMS)] at 100 nM: 2.07
PARP-1
  IC50: 11 nM

## CC(C)(Sc1ccccn1)C(=O)N1CCN(C(=O)c2cc(Cc3n[nH]c(=O)c4ccccc34)ccc2F)CC1 [Example 38, 4-(4-fluoro-3-(4-(2-methyl-2-(pyridin-2-ylthio)propanoyl)piperazine-1-carbonyl)benzyl)phthalazin-1(2H)-one]
MCF-7 cell line
  Survival affected by drug [(−MMS/+MMS)] at 100 nM: 1.96
PARP-1
  IC50: 5 nM

## CC(C)(Sc1ccc(Cl)c(Cl)c1)C(=O)N1CCN(C(=O)c2cc(Cc3n[nH]c(=O)c4ccccc34)ccc2F)CC1 [Example 30, 4-(3-(4-(2-((3,4-dichlorophenyl)thio)-2-methylpropanoyl)piperazine-1-carbonyl)-4-fluorobenzyl)phthalazin-1(2H)-one]
MCF-7 cell line
  Survival affected by drug [(−MMS/+MMS)] at 100 nM: 2.22
PARP-1
  IC50: 9.38 nM

## Cc1cc(OC(C)(C)C(=O)N2CCN(C(=O)c3cc(Cc4n[nH]c(=O)c5ccccc45)ccc3F)CC2)cc(C)c1Br [Example 37, 4-(3-(4-(2-(4-bromo-3,5-dimethylphenoxy)-2-methylpropanoyl)piperazine-1-carbonyl)-4-fluorobenzyl)phthalazin-1(2H)-one]
MCF-7 cell line
  Survival affected by drug [(−MMS/+MMS)] at 100 nM: 1.61
PARP-1
  IC50: 16.5 nM

## CC(C)(C(=O)N1CCN(C(=O)c2cc(Cc3n[nH]c(=O)c4ccccc34)ccc2F)CC1)S(=O)(=O)c1ccc(F)cc1 [Example 24, 4-(4-fluoro-3-(4-(2-((4-fluorophenyl)sulfonyl)-2-methylpropanoyl)piperazine-1-carbonyl)benzyl)phthalazin-1(2H)-one]
MCF-7 cell line
  Survival affected by drug [(−MMS/+MMS)] at 100 nM: 2.28
PARP-1
  IC50: 4.66 nM

## CC(C)(Sc1ccccc1)C(=O)N1CCN(C(=O)c2cc(Cc3n[nH]c(=O)c4ccccc34)ccc2F)CC1 [Example 46, 4-(4-fluoro-3-(4-(2-methyl-2-(phenylthio)propanoyl)piperazine-1-carbonyl)benzyl)phthalazin-1(2H)-one]
MCF-7 cell line
  Survival affected by drug [(−MMS/+MMS)] at 100 nM: 2.28
PARP-1
  IC50: 10.6 nM

## CC(C)(C(=O)N1CCN(C(=O)c2cc(Cc3n[nH]c(=O)c4ccccc34)ccc2F)CC1)S(=O)(=O)c1ccccc1 [Example 23, 4-(4-fluoro-3-(4-(2-methyl-2-(phenylsulfonyl)propanoyl)piperazine-1-carbonyl)benzyl)phthalazin-1(2H)-one]
MCF-7 cell line
  Survival affected by drug [(−MMS/+MMS)] at 100 nM: 2.11
PARP-1
  IC50: 4.23 nM

## CC(C)(Sc1cc(Cl)ccc1Cl)C(=O)N1CCN(C(=O)c2cc(Cc3n[nH]c(=O)c4ccccc34)ccc2F)CC1 [Example 33, 4-(3-(4-(2-((2,5-dichlorophenyl)thio)-2-methylpropanoyl)piperazine-1-carbonyl)-4-fluorobenzyl)phthalazin-1(2H)-one]
MCF-7 cell line
  Survival affected by drug [(−MMS/+MMS)] at 100 nM: 1.98
PARP-1
  IC50: 7.9 nM

## CC(C)(Sc1cccc(F)c1)C(=O)N1CCN(C(=O)c2cc(Cc3n[nH]c(=O)c4ccccc34)ccc2F)CC1 [Example 32, 4-(4-fluoro-3-(4-(2-((3-fluorophenyl)thio)-2-methylpropanoyl)piperazine-1-carbonyl)benzyl)phthalazin-1(2H)-one]
MCF-7 cell line
  Survival affected by drug [(−MMS/+MMS)] at 100 nM: 2.08
PARP-1
  IC50: 5.7 nM

## CC(C)(Sc1ccc(F)cc1)C(=O)N1CCN(C(=O)c2cc(Cc3n[nH]c(=O)c4ccccc34)ccc2F)CC1 [Example 22, 4-(4-fluoro-3-(4-(2-((4-fluorophenyl)thio)-2-methylpropanoyl)piperazine-1-carbonyl)benzyl)phthalazin-1(2H)-one]
MCF-7 cell line
  Survival affected by drug [(−MMS/+MMS)] at 100 nM: 2.1
PARP-1
  IC50: 5.3 nM

## COc1cccc(SC(C)(C)C(=O)N2CCN(C(=O)c3cc(Cc4n[nH]c(=O)c5ccccc45)ccc3F)CC2)c1 [Example 28, 4-(4-fluoro-3-(4-(2-((3-methoxyphenyl)thio)-2-methylpropanoyl)piperazine-1-carbonyl)benzyl)phthalazin-1(2H)-one]
MCF-7 cell line
  Survival affected by drug [(−MMS/+MMS)] at 100 nM: 2.08
PARP-1
  IC50: 7.08 nM

## O=C(c1cc(Cc2n[nH]c(=O)c3ccccc23)ccc1F)N1CCN(C(=O)C2CC2)CC1 [AZD, reference compound]
MCF-7 cell line
  Survival affected by drug [(−MMS/+MMS)] at 100 nM: 2.19

## CC(C)(Nc1ccccc1)C(=O)N1CCN(C(=O)c2cc(Cc3n[nH]c(=O)c4ccccc34)ccc2F)CC1 [Example 35, 4-(4-fluoro-3-(4-(2-methyl-2-(phenylamino)-propanoyl)piperazine-1-carbonyl)benzyl)phthalazin-1(2H)-one]
MCF-7 cell line
  Survival affected by drug [(−MMS/+MMS)] at 100 nM: 3.33
PARP-1
  IC50: 3.56 nM

## CC(C)(Sc1ccc(Cl)cc1Cl)C(=O)N1CCN(C(=O)c2cc(Cc3n[nH]c(=O)c4ccccc34)ccc2F)CC1 [Example 31, 4-(3-(4-(2-((2,4-dichlorophenyl)thio)-2-methylpropanoyl)piperazine-1-carbonyl)-4-fluorobenzyl)phthalazin-1(2H)-one]
MCF-7 cell line
  Survival affected by drug [(−MMS/+MMS)] at 100 nM: 1.94
PARP-1
  IC50: 3.05 nM

## CC(C)(Nc1ccc(F)cc1)C(=O)N1CCN(C(=O)c2cc(Cc3n[nH]c(=O)c4ccccc34)ccc2F)CC1 [Example 34, 4-(4-fluoro-3-(4-(2-((4-fluorophenyl)amino)-2-methylpropanoyl)piperazine-1-carbonyl)-benzyl)phthalazin-1(2H)-one]
MCF-7 cell line
  Survival affected by drug [(−MMS/+MMS)] at 100 nM: 2.85
PARP-1
  IC50: 6.68 nM
